Assays:
Type in all cases: functional
Malme-3M [1] = experiment: In vitro growth inhibition against melanoma MALME 3M cell line was reported.; conditions: Homo sapiens
SNB-75 [2] = experiment: Log of molar concentration leading to 50% cell death against CNS cancer SNB-75 cell line was reported; conditions: Homo sapiens, read-out: Log LC50 (the source's name) (converted)
CCRF-CEM = experiment: Log of molar concentration leading to 50% cell death against leukemia CCRF-CEM cell line was reported; conditions: Homo sapiens, read-out: Log LC50 (the source's name) (converted)
NCI-H522 [3] = experiment: In vitro growth inhibition against non-small-cell lung cancer […] cell line was reported.; conditions: Homo sapiens
Malme-3M [4] = experiment: Log of molar concentration leading to 50% cell death against melanoma MALME 3M cell line was reported; conditions: Homo sapiens, read-out: Log LC50 (the source's name) (converted)
SN12C [5] = experiment: In vitro total growth inhibition against renal cancer SN12C cell lines was reported.; conditions: Homo sapiens, read-out: Log TGI (converted)
MOLT-4 = experiment: Log of molar concentration leading to 50% cell death against leukemia MOLT-4 cell line was reported; conditions: Homo sapiens, read-out: Log LC50 (the source's name) (converted)
RPMI-8226 = experiment: In vitro growth inhibition against leukemia […] cell line was reported.; conditions: Homo sapiens
UACC-62 = experiment: Log of molar concentration leading to 50% cell death against melanoma UACC-62 cell line was reported; conditions: Homo sapiens, read-out: Log LC50 (the source's name) (converted)
SK-MEL-2 = experiment: Log of molar concentration leading to 50% cell death against melanoma SK-MEL-2 cell line was reported; conditions: Homo sapiens, read-out: Log LC50 (the source's name) (converted)
OVCAR-5 = experiment: Log of molar concentration leading to 50% cell death against ovarian cancer […] cell line was reported; conditions: Homo sapiens, read-out: Log LC50 (the source's name) (converted)
A498 = experiment: Log of molar concentration leading to 50% cell death against renal cancer A498 cell line was reported; conditions: Homo sapiens, read-out: Log LC50 (the source's name) (converted)
TK-10 = experiment: Log of molar concentration leading to 50% cell death against renal cancer TK-10 cell line was reported; conditions: Homo sapiens, read-out: Log LC50 (the source's name) (converted)
SK-MEL-28 = experiment: In vitro total growth inhibition against melanoma SK-MEL-28 cell lines was reported.; conditions: Homo sapiens, read-out: Log TGI (converted)
OVCAR-4 [6] = experiment: In vitro total growth inhibition against ovarian cancer OVCAR-4 cell lines was reported.; conditions: Homo sapiens, read-out: Log TGI (converted)
COLO 205 = experiment: In vitro total growth inhibition against colon cancer COLO 205 cell lines was reported.; conditions: Homo sapiens, read-out: Log TGI (converted)
SR = experiment: Log of molar concentration leading to 50% cell death against leukemia SR cell line was reported; conditions: Homo sapiens, read-out: Log LC50 (the source's name) (converted)
SK-OV-3 [7] = experiment: In vitro total growth inhibition against ovarian cancer SK-OV-3 cell lines was reported.; conditions: Homo sapiens, read-out: Log TGI (converted)
MDA-N = experiment: Log of molar concentration leading to 50% cell death against breast cancer MDA-Ncell line was reported; conditions: Homo sapiens, read-out: Log LC50 (the source's name) (converted)
NCI-H226 [8] = experiment: Log of molar concentration leading to 50% cell death against non-small-cell lung cancer NCI-H226 cell line was reported; conditions: Homo sapiens, read-out: Log LC50 (the source's name) (converted)
SF-268 [9] = experiment: In vitro growth inhibition against CNS cancer SF-268 cell line was reported.; conditions: Homo sapiens
K562 [10] = experiment: In vitro growth inhibition against leukemia K-562 cell line was reported.; conditions: Homo sapiens
HCT-15 = experiment: Log of molar concentration leading to 50% cell death against colon cancer HCT-15 cell line was reported; conditions: Homo sapiens, read-out: Log LC50 (the source's name) (converted)
ACHN = experiment: Log of molar concentration leading to 50% cell death against renal cancer ACHN cell line was reported; conditions: Homo sapiens, read-out: Log LC50 (the source's name) (converted)
SNB-19 = experiment: Log of molar concentration leading to 50% cell death against CNS cancer SNB-19 cell line was reported; conditions: Homo sapiens, read-out: Log LC50 (the source's name) (converted)
SN12C [11] = experiment: Log of molar concentration leading to 50% cell death against renal cancer SN12C cell line was reported; conditions: Homo sapiens, read-out: Log LC50 (the source's name) (converted)
KM12 = experiment: In vitro growth inhibition against colon cancer KM12 cell line was reported.; conditions: Homo sapiens
CAKI-1 = experiment: In vitro growth inhibition against renal cancer CAKI-1 cell line was reported.; conditions: Homo sapiens
UO-31 [12] = experiment: In vitro total growth inhibition against renal cancer UO-31 cell lines was reported.; conditions: Homo sapiens, read-out: Log TGI (converted)
OVCAR-4 [13] = experiment: Log of molar concentration leading to 50% cell death against ovarian cancer OVCAR-4 cell line was reported; conditions: Homo sapiens, read-out: Log LC50 (the source's name) (converted)
BT-549 = experiment: Log of molar concentration leading to 50% cell death against breast cancer BT 549 cell line was reported; conditions: Homo sapiens, read-out: Log LC50 (the source's name) (converted)
NCI-H23 = experiment: Log of molar concentration leading to 50% cell death against non-small-cell lung cancer NCI-H23 cell line was reported; conditions: Homo sapiens, read-out: Log LC50 (the source's name) (converted)
A549 = experiment: In vitro growth inhibition against non-small-cell lung cancer A 549/ATCC cell line was reported.; conditions: Homo sapiens
NCI-H522 [14] = experiment: Log of molar concentration leading to 50% cell death against non-small-cell lung cancer NCI-522 cell line was reported; conditions: Homo sapiens, read-out: Log LC50 (the source's name) (converted)
RXF 393 = experiment: In vitro total growth inhibition against renal cancer RXF 393 cell lines was reported.; conditions: Homo sapiens, read-out: Log TGI (converted)
SF-295 = experiment: In vitro total growth inhibition against CNS cancer SF-295 cell lines was reported.; conditions: Homo sapiens, read-out: Log TGI (converted)
SNB-75 [15] = experiment: In vitro growth inhibition against CNS cancer SNB-75 cell line was reported.; conditions: Homo sapiens
786-0 = experiment: Log of molar concentration leading to 50% cell death against renal cancer […] cell line was reported; conditions: Homo sapiens, read-out: Log LC50 (the source's name) (converted)
SK-MEL-5 = experiment: In vitro total growth inhibition against melanoma SK-MEL-5 cell lines was reported.; conditions: Homo sapiens, read-out: Log TGI (converted)
HCT-116 = experiment: In vitro growth inhibition against colon cancer HCT116 cell line was reported.; conditions: Homo sapiens
Malme-3M [16] = experiment: In vitro total growth inhibition against melanoma MALME 3M cell lines was reported.; conditions: Homo sapiens, read-out: Log TGI (converted)
DU-145 = experiment: Log of molar concentration leading to 50% cell death against prostate cancer […] cell line was reported; conditions: Homo sapiens, read-out: Log LC50 (the source's name) (converted)
SK-OV-3 [17] = experiment: In vitro growth inhibition against ovarian cancer SK-OV-3 cell line was reported.; conditions: Homo sapiens
UO-31 [18] = experiment: Log of molar concentration leading to 50% cell death against renal cancer UO-31 cell line was reported; conditions: Homo sapiens, read-out: Log LC50 (the source's name) (converted)
IGROV-1 = experiment: In vitro growth inhibition against ovarian cancer IGROV1 cell line was reported.; conditions: Homo sapiens
NCI-H226 [19] = experiment: In vitro total growth inhibition against non-small-cell lung cancer NCI-H226 cell lines was reported.; conditions: Homo sapiens, read-out: Log TGI (converted)
Hs-578T = experiment: In vitro total growth inhibition against breast cancer HS 578T cell lines was reported.; conditions: Homo sapiens, read-out: Log TGI (converted)
OVCAR-8 = experiment: In vitro growth inhibition against ovarian cancer OVCAR-8 cell line was reported.; conditions: Homo sapiens
K562 [20] = experiment: In vitro total growth inhibition against leukemia K-562 cell lines was reported.; conditions: Homo sapiens, read-out: Log TGI (converted)
LOX IMVI = experiment: Log of molar concentration leading to 50% cell death against melanoma LOX IMVI cell line was reported; conditions: Homo sapiens, read-out: Log LC50 (the source's name) (converted)
SF-268 [21] = experiment: In vitro total growth inhibition against CNS cancer SF-268 cell lines was reported.; conditions: Homo sapiens, read-out: Log TGI (converted)

O=C(Nc1nccs1)c1cc2c(cc1Cl)Sc1nccn1S2(=O)=O
GI50 (Malme-3M [1]): 20 µM
CC50 (SNB-75 [2]): 66.1 µM
CC50 (CCRF-CEM): 95.5 µM
GI50 (NCI-H522 [3]): 1.23 µM
CC50 (Malme-3M [4]): 69.2 µM
TGI (SN12C [5]): 32.4 µM
CC50 (MOLT-4): 93.3 µM
GI50 (RPMI-8226): 9.33 µM
CC50 (UACC-62): 52.5 µM
CC50 (SK-MEL-2): 63.1 µM
CC50 (OVCAR-5): 97.7 µM
CC50 (A498): 63.1 µM
CC50 (TK-10): 63.1 µM
TGI (SK-MEL-28): 38 µM
TGI (OVCAR-4 [6]): 38.9 µM
TGI (COLO 205): 30.9 µM
CC50 (SR): 46.8 µM
TGI (SK-OV-3 [7]): 64.6 µM
CC50 (MDA-N): 61.7 µM
CC50 (NCI-H226 [8]): 64.6 µM
GI50 (SF-268 [9]): 19.1 µM
GI50 (K562 [10]): 15.8 µM
CC50 (HCT-15): 93.3 µM
CC50 (ACHN): 58.9 µM
CC50 (SNB-19): 72.4 µM
CC50 (SN12C [11]): 63.1 µM
GI50 (KM12): 12.3 µM
GI50 (CAKI-1): 8.51 µM
TGI (UO-31 [12]): 14.8 µM
CC50 (OVCAR-4 [13]): 91.2 µM
CC50 (BT-549): 69.2 µM
CC50 (NCI-H23): 67.6 µM
GI50 (A549): 24 µM
CC50 (NCI-H522 [14]): 6.61 µM
TGI (RXF 393): 39.8 µM
TGI (SF-295): 34.7 µM
GI50 (SNB-75 [15]): 18.6 µM
CC50 (786-0): 53.7 µM
TGI (SK-MEL-5): 30.2 µM
GI50 (HCT-116): 16.2 µM
TGI (Malme-3M [16]): 37.2 µM
CC50 (DU-145): 27.5 µM
GI50 (SK-OV-3 [17]): 24.5 µM
CC50 (UO-31 [18]): 46.8 µM
GI50 (IGROV-1): 11.7 µM
TGI (NCI-H226 [19]): 35.5 µM
TGI (Hs-578T): 91.2 µM
GI50 (OVCAR-8): 17.4 µM
TGI (K562 [20]): 46.8 µM
CC50 (LOX IMVI): 60.3 µM
TGI (SF-268 [21]): 46.8 µM

From ChEMBL document CHEMBL1135808, “A new type of mixed anhydride and its applications to the synthesis of 7-substituted 8-chloro-5,5-dioxoimidazo[1,2-b][1,4,2]benzodithiazines with in vitro antitumor activity” (2002)
